The NIST ThermoML archive (doi:10.1021/je050460d)

Assay: xn = mol fraction of the nth substance listed
Details: 101 kPa, Liquid; for viscosity: Capillary tube (Ostwald / Ubbelohde) method; for mass density: Vibrating tube method

CCCCn1cc[n+](C)c1.[Cl-] [1-butyl-3-methylimidazolium chloride] + O
Details	mass density, 298.15 K [kg/m3]	mass density, 313.15 K [kg/m3]	mass density, 328.15 K [kg/m3]	mass density, 343.15 K [kg/m3]	viscosity, 298.15 K [mPa·s]	viscosity, 313.15 K [mPa·s]	viscosity, 328.15 K [mPa·s]	viscosity, 343.15 K [mPa·s]
x2 = 0.5666	1081	1072	1063.4	1054.7	123.5	56.63	30.04	17.69
x2 = 0.607	1079.9	1070.8	1062	1053.1	72.16	35.36	19.75	12.2
x2 = 0.6933	1076.5	1067.2	1058.1	1048.8	35.66	18.94	11.32	7.386
x2 = 0.7698	1071.1	1061.5	–	–	18.08	10.11	–	–
x2 = 0.7699	–	–	1052.1	1042.4	–	–	6.474	4.419
x2 = 0.8279	1063.8	1054.1	1044.5	1034.4	10.19	6.125	4.019	2.858
x2 = 0.8674	1057.1	1047.1	1037.3	1027.1	6.628	4.123	2.795	2.043
x2 = 0.9194	1042.3	1032.8	1023.3	1013.1	3.543	2.311	1.635	1.228
x2 = 0.9625	1022.3	1014	1006.1	996.7	1.886	1.297	0.955	0.741
x2 = 0.9885	1005.2	999.1	989.3	979.6	1.175	0.955	0.753	0.652

CCCCCCn1cc[n+](C)c1.[Cl-] [1-hexyl-3-methylimidazolium chloride] + O
Details	mass density, 298.15 K [kg/m3]	mass density, 313.15 K [kg/m3]	mass density, 328.15 K [kg/m3]	mass density, 343.15 K [kg/m3]	viscosity, 298.15 K [mPa·s]	viscosity, 313.15 K [mPa·s]	viscosity, 328.15 K [mPa·s]	viscosity, 343.15 K [mPa·s]
x2 = 0	1039.67	1031.13	1022.69	1014.34	18089	3429	942.1	339.5
x2 = 0.1274	1040.45	1031.89	1023.44	1015.06	7667	1746	516.4	207.4
x2 = 0.3173	1040.7	1032.22	1023.8	1015.5	1020	393.5	165.7	79.07
x2 = 0.3906	1040.95	1032.63	1024.3	1015.77	499.4	188.9	86.76	45.52
x2 = 0.5594	1041.4	1032.76	1024.14	1015.4	201.2	88.11	44.87	25.37
x2 = 0.7127	1038.77	1029.8	1020.75	1011.45	60.75	30.04	16.83	10.39
x2 = 0.783	1035.72	1026.67	1017.17	1007.71	33.79	17.49	10.17	6.542
x2 = 0.8935	1025.28	1016.2	1006.79	997	8.688	5.191	3.367	2.358
x2 = 0.9417	1018.17	1009.43	1000.13	990.26	3.505	2.323	1.649	1.224

CCCCCCCC[n+]1ccn(C)c1.[Cl-] [1-methyl-3-octylimidazolium chloride] + O
Details	mass density, 298.15 K [kg/m3]	mass density, 313.15 K [kg/m3]	mass density, 328.15 K [kg/m3]	mass density, 343.15 K [kg/m3]	viscosity, 298.15 K [mPa·s]	viscosity, 313.15 K [mPa·s]	viscosity, 328.15 K [mPa·s]	viscosity, 343.15 K [mPa·s]
x2 = 0	1008.82	1000.2	991.67	983.24	20883	4066	1091	387.2
x2 = 0.1484	1009.61	1000.98	992.42	983.87	5570	1470	484.6	200.1
x2 = 0.203	1009.99	1001.35	992.77	984.21	3815	1097	393.5	165.4
x2 = 0.4076	1011.83	1003.2	994.4	985.6	1325	387.9	170.8	84.75
x2 = 0.5334	1012.7	1003.76	994.81	985.96	921.1	337.9	147.7	74.31
x2 = 0.6807	1012.37	1003.16	993.98	984.8	433	175.5	83.26	44.23
x2 = 0.8185	1009.16	1000.09	990.76	981.11	193.4	83.87	42.22	24.22
x2 = 0.8803	1006.63	997.6	988.16	978.39	80.77	38.02	20.45	12.17
x2 = 0.9307	1003.69	995.12	985.89	976.15	22.48	13.27	8.18	5.33
x2 = 0.9635	1001.1	993.58	985.06	975.71	5.71	4.25	3.3	2.65
